Reference: PubChem BioAssay (NCI)
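Cultured in 96-well plates, cells were exposed to test compound for 48 hours across five concentrations. Here, GI50 denotes the concentration required for 50% inhibition of growth. At the TGI there is no net growth.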

Key:
Test in all cases: inhibition of tumour cell growth, NCI panel, 48 h
[1] = tested on: MOLT-4 leukemia
[2] = tested on: COLO 205 colon
[3] = tested on: SW-620 colon
[4] = tested on: HCT-15 colon
[5] = tested on: OVCAR-4 ovarian
[6] = tested on: PC-3 prostate
[7] = tested on: IGROV1 ovarian
[8] = tested on: M14 melanoma
[9] = tested on: MDA-MB-231 breast
[10] = tested on: OVCAR-8 ovarian
[11] = tested on: NCI/ADR-RES ovarian
[12] = tested on: MALME-3M melanoma
[13] = tested on: DU-145 prostate
[14] = tested on: BT-549 breast
[15] = tested on: U251 CNS
[16] = tested on: TK-10 renal
[17] = tested on: HCC-2998 colon
[18] = tested on: HCT-116 colon
[19] = tested on: NCI-H522 lung
[20] = tested on: SR leukemia
[21] = tested on: MDA-MB-468 breast
[22] = tested on: SK-OV-3 ovarian
[23] = tested on: NCI-H23 lung
[24] = tested on: A549 NSCLC
[25] = tested on: OVCAR-3 ovarian
[26] = tested on: UO-31 renal
[27] = tested on: CAKI-1 renal
[28] = tested on: ACHN renal
[29] = tested on: 786-0 renal
[30] = tested on: RXF 393 renal
[31] = tested on: HL-60(TB) leukemia
[32] = tested on: SF-539 CNS
[33] = tested on: OVCAR-5 ovarian
[34] = tested on: HOP-92 NSCLC
[35] = tested on: KM12 colon
[36] = tested on: EKVX NSCLC
[37] = tested on: CCRF-CEM leukemia
[38] = tested on: SN12C renal
[39] = tested on: SF-268 CNS
[40] = tested on: HS 578T breast
[41] = tested on: SK-MEL-28 melanoma
[42] = tested on: A498 renal
[43] = tested on: K-562 leukemia
[44] = tested on: RPMI-8226 leukemia
[45] = tested on: T-47D breast
[46] = tested on: UACC-62 melanoma
[47] = tested on: SNB-19 CNS
[48] = tested on: SF-295 CNS
[49] = tested on: SNB-75 CNS
[50] = tested on: HOP-62 NSCLC
[51] = tested on: SK-MEL-2 melanoma
[52] = tested on: LOX IMVI melanoma
[53] = tested on: SK-MEL-5 melanoma
[54] = tested on: NCI-H460 lung
[55] = tested on: NCI-H226 lung
[56] = tested on: HT29 colon
[57] = tested on: MDA-MB-435
[58] = tested on: MCF7 breast

`O=C(Nc1cccc(-n2cnc3cc(-c4ccc(O)cc4)ccc32)c1)C1CC1` gave a GI50 [1] of 435 nM, a TGI [1] of 6190 nM and a GI50 [2] of 489 nM. The TGI [2] was 18600 nM, the GI50 [3] was 421 nM and the TGI [3] was > 91500 nM. It also gave a GI50 [4] of 308 nM, a TGI [4] of 15700 nM and a GI50 [5] of 5940 nM. It also gave a TGI [5] of 73900 nM, a GI50 [6] of 546 nM and a TGI [6] of 53200 nM. It also gave a GI50 [7] of 591 nM, a TGI [7] of 26900 nM and a GI50 [8] of 344 nM. The TGI [8] was 28300 nM, the GI50 [9] was 700 nM and the TGI [9] was 42900 nM. For the same molecule, the GI50 [10] was 823 nM, the TGI [10] was > 58800 nM and the GI50 [11] was 539 nM. It also gave a TGI [11] of 5880 nM, a GI50 [12] of 555 nM and a TGI [12] of 28200 nM. It also gave a GI50 [13] of 1460 nM, a TGI [13] of 28400 nM and a GI50 [14] of 396 nM. The TGI [14] was 11800 nM, the GI50 [15] was 514 nM and the TGI [15] was > 100000 nM. The GI50 [16] was 11300 nM, the TGI [16] was 63400 nM and the GI50 [17] was 1180 nM. The TGI [17] was 24400 nM, the GI50 [18] was 512 nM and the TGI [18] was 17700 nM. For the same molecule, the GI50 [19] was 225 nM, the TGI [19] was 1140 nM and the GI50 [20] was 175 nM. It also gave a TGI [20] of 59600 nM, a GI50 [21] of 313 nM and a TGI [21] of 8820 nM. The GI50 [22] was 820 nM, the TGI [22] was 33700 nM and the GI50 [23] was 1120 nM. For the same molecule, the TGI [23] was 19800 nM, the GI50 [24] was 895 nM and the TGI [24] was > 100000 nM. The GI50 [25] was 320 nM, the TGI [25] was 3760 nM and the GI50 [26] was 599 nM. For the same molecule, the TGI [26] was 19300 nM, the GI50 [27] was 503 nM and the TGI [27] was 66500 nM. The GI50 [28] was 593 nM, the TGI [28] was 35200 nM and the GI50 [29] was 683 nM. The TGI [29] was 45600 nM, the GI50 [30] was 411 nM and the TGI [30] was 6600 nM. It also gave a GI50 [31] of 237 nM, a TGI [31] of 645 nM and a GI50 [32] of 332 nM. For the same molecule, the TGI [32] was 2030 nM, the GI50 [33] was 1810 nM and the TGI [33] was 69500 nM. The GI50 [34] was 14600 nM, the TGI [34] was 52100 nM and the GI50 [35] was 351 nM. The TGI [35] was 13900 nM, the GI50 [36] was 782 nM and the TGI [36] was 36100 nM. The GI50 [37] was 389 nM, the TGI [37] was 10300 nM and the GI50 [38] was 550 nM. It also gave a TGI [38] of 35600 nM, a GI50 [39] of 935 nM and a TGI [39] of 71000 nM. For the same molecule, the GI50 [40] was 388 nM, the TGI [40] was > 45400 nM and the GI50 [41] was 12600 nM. The TGI [41] was 48500 nM, the GI50 [42] was 19500 nM and the TGI [42] was 84900 nM. The GI50 [43] was 284 nM, the TGI [43] was > 36600 nM and the GI50 [44] was 615 nM. For the same molecule, the TGI [44] was 13600 nM, the GI50 [45] was 521 nM and the TGI [45] was 19400 nM. The GI50 [46] was 354 nM, the TGI [46] was 19300 nM and the GI50 [47] was 811 nM. It also gave a TGI [47] of 72900 nM, a GI50 [48] of 372 nM and a TGI [48] of 7670 nM. It also gave a GI50 [49] of 246 nM, a TGI [49] of 3420 nM and a GI50 [50] of 625 nM. For the same molecule, the TGI [50] was > 69200 nM, the GI50 [51] was 417 nM and the TGI [51] was 23600 nM. The GI50 [52] was 478 nM, the TGI [52] was 22100 nM and the GI50 [53] was 350 nM. For the same molecule, the TGI [53] was 14800 nM, the GI50 [54] was 469 nM and the TGI [54] was > 43700 nM. For the same molecule, the GI50 [55] was 2880 nM, the TGI [55] was 48100 nM and the GI50 [56] was 340 nM. For the same molecule, the TGI [56] was > 40800 nM, the GI50 [57] was 108 nM and the TGI [57] was 441 nM. It also gave a GI50 [58] of 358 nM and a TGI [58] of 20200 nM.
